Assay results from BigSolDB 2.1.

CCCCCc1ccc2c(c1)C(=O)c1ccccc1C2=O
solubility (mole fraction)
Details | 288.15 K | 293.15 K | 298.15 K | 303.15 K | 308.15 K | 313.15 K | 318.15 K | 323.15 K
in 2-butanone | 0.0341 | 0.0431 | 0.0513 | 0.0587 | 0.0683 | 0.0828 | 0.105 | 0.129
in MIBK | 0.0433 | 0.0539 | 0.0601 | 0.0676 | 0.0744 | 0.0836 | 0.104 | 0.126
in acetone | 0.0225 | 0.0299 | 0.0376 | 0.0443 | 0.0517 | – | 0.0815 | 0.105
in acetonitrile | 0.00299 | 0.00478 | 0.00811 | 0.0127 | 0.0203 | – | 0.051 | 0.0786
in ethanol | 0.0029 | 0.00392 | 0.00531 | 0.00725 | 0.00988 | 0.0145 | 0.0195 | 0.0265
in ethyl acetate | 0.0501 | 0.0583 | 0.0663 | 0.0761 | 0.088 | 0.101 | 0.12 | 0.151
in isopropyl acetate | 0.0522 | 0.0598 | 0.0708 | 0.0842 | 0.0974 | 0.114 | 0.137 | 0.163
in methanol | 0.00131 | 0.00199 | 0.00271 | 0.00364 | 0.00502 | 0.00682 | 0.00928 | 0.0131
in n-butanol | 0.00826 | 0.0111 | 0.0154 | 0.021 | 0.0275 | 0.0346 | 0.0446 | 0.0626
in n-propanol | 0.00541 | 0.00743 | 0.0102 | 0.0144 | 0.02 | 0.0265 | 0.0346 | 0.049
in sec-butanol | 0.00259 | 0.00378 | 0.0056 | 0.00842 | 0.012 | 0.0182 | 0.0257 | 0.0388
